The source of these data is patent publication US20170292961A1, “SYSTEMS AND METHODS FOR ASSESSING INTER-CELL COMMUNICATION” (Q-STATE BIOSCIENCES, INC., priority 2014, published 2017).

The subject of data set [1] is estrogen sulfotransferase. To be noted: pathway of metabolism of birth control pill ingredients; cited from earlier work.
Data set [2] has as its system cardiomyocytes.
From the text: In some embodiments, the reporter cells also include an optical ion sensor that indicates an intracellular concentration of an ion, for example, a calcium reporter. In a preferred embodiment, the optical voltage reporter and the calcium reporter are provided together within a fusion protein. For example, the fusion protein may be CaViar which includes a calcium reporter and a voltage indicator. Using such a fusion protein, detecting the optical signal may include detecting an action potential and calcium transients.
The columns show results from increasing concentrations and each panel is fluorescence over time.
The subject of data set [3] is patient-derived neurons. Nature of the data set: Spike frequency of patient-derived neurons exposed to an anticonvulsant. The data set is classed as cell-based. The following applies: for spike frequency: in DMSO versus DMSO alone. The text has this:
FIG. 52 illustrates the results of exposing patient-derived neurons to acute doses of an anticonvulsant. A frequency of spiking is plotted over unitless scaled stimulus strength. Angled vertical lines are drawn onto the graph to aid in showing which data points correspond to one another. Asterisks are used to indicate a significance of a difference. […] FIG. 53 illustrates the results of exposing patient-derived neurons to chronic doses of an anticonvulsant. A frequency of spiking is plotted over unitless scaled stimulus strength. After exposure to STR in DMSO (versus exposure to the DMSO alone), spike frequency is decreased. […] Thus it can be seen that methods and compositions of the invention may be used to evaluate signal propagation between cells such as cardiomyocytes or neurons.

For data set [4], the system named is neurons. The text has this:
Methods of the invention may be used to evaluate the effects of compounds on neurons. In some embodiments, the cells that include the optical voltage reporter are neurons and those neurons are exposed to a voltage-gated potassium channel blocker such as tetraethylammonium.

Data set [5] concerns membrane voltage. To be noted: literature indicators; cited from earlier work.
The subject of data set [6] is HEK 293T cells. Nature of the data set: Arch fluorescence versus membrane potential in HEK cells under whole-cell voltage clamp. The data set is classed as cell-based, human. The text has this:
An optical reporter such as Arch 3 may be expressed in human embryonic kidney 293 (HEK293T) cells. Fluorescence of Arch 3 in HEK 293T cells was readily imaged in an inverted fluorescence microscope with red illumination (=640 nm, I=540 W/cm2), a high numerical aperture objective, a Cy5 filter set, and an EMCCD camera.
Fluorescence of Arch 3 in HEK 293 cells was readily imaged in an inverted fluorescence microscope with red illumination (lambda=640 nm, I=540 W/cm̂2), a high numerical aperture objective, a Cy5 filter set, and an EMCCD camera. […] Cells not expressing Arch were not fluorescent.
The fluorescence of HEK cells expressing Arch was highly sensitive to membrane potential, as determined via whole-cell voltage clamp. We developed an algorithm to combine pixel intensities in a weighted sum such that the output, was a nearly optimal estimate of membrane potential V determined by conventional electrophysiology.
The fluorescence was divided by its value at −150 mV. The fluorescence increased by a factor of 2 between −150 mV and +150 mV, with a nearly linear response throughout this range (FIG. 35). The response of fluorescence to a step in membrane potential occurred within the 500 micro s time resolution of our imaging system on both the rising and falling edge.
The overshoots on the rising and falling edges were an artifact of electronic compensation circuitry. Data were an average of 20 cycles. […] Cells not expressing Arch 3 were not fluorescent. […] Application of a sinusoidally varying membrane potential led to sinusoidally varying fluorescence; at f=1 kHz, the fluorescence oscillations retained 55% of their low-frequency amplitude (FIG. 37). Arch reported voltage steps as small as 10 mV, with an accuracy of 625 micro V/(Hz)̂(1/2) over timescales<12 s (FIG. 38). Over longer timescales laser power fluctuations and cell motion degraded the accuracy.

The test system of data set [7] is membrane voltage. Description: Speed and sensitivity of fluorescent voltage indicators.
From the text: Membrane voltage can be measured with a precision of <1 mV in a 1 s interval. […] Arch 3 WT retains the photo-induced proton-pumping, so illumination slightly hyperpolarizes the cell. […] The voltage-indicating protein reporters, sometimes referred to as genetically encoded voltage indicators (GEVIs), may be excited with a laser at wavelengths between 590-640 nm, and the emission is in the near infrared, peaked at 710 nm.

Residue numbers refer to the chain shown, from its start. Numbers in names are those of the source. Where “and” joins values, the source holds several entries; their conditions need not be identical. Equal values may be shown once. Read-outs that look alike come from different tables or passages of the source.

For `CO[C@H]1/C=C/O[C@@]2(C)Oc3c(C)c(O)c4c(O)c(c(/C=N/N5CCN(C)CC5)c(O)c4c3C2=O)NC(=O)/C(C)=C\C=C\[C@H](C)[C@H](O)[C@@H](C)[C@@H](O)[C@@H](C)[C@H](OC(C)=O)[C@@H]1C` [Rifampin], the “induction of estrogen sulfotransferase” value in data set [1] is “induce”.
As for `O=C(NCC1CCCCN1)c1cc(OCC(F)(F)F)ccc1OCC(F)(F)F` (stereo not drawn) [flecainide], in data set [2], the AP30 result was “decrease”, the AP60 result is “decrease”, the AP90 entry was “decrease” and the Ca amplitude entry is “decrease”. Further, in data set [2], the “average action potential waveform” value is given as “diverge dramatically”; the “calcium trace (fluorescence over time)” value was “dramatically diminished”; the rise time result is “increase”; the “rise time (average, FIG. 46)” value is “interferes with rise time”. Besides, the “voltage trace (fluorescence over time)” value in data set [2] is on record as “dramatically diminished”.
As to `COc1c(N2C[C@@H]3CCCN[C@@H]3C2)c(F)cc2c(=O)c(C(=O)O)cn(C3CC3)c12` [moxifloxacin], in data set [2], the AP30 result was “decrease”, the AP60 entry is recorded as “decrease”, the AP90 entry was “decrease” and the Ca amplitude result was “decrease”. In data set [2], the “average action potential waveform” value is on record as “AP prolongation”, the “calcium trace (fluorescence over time)” value was “severely diminished”, the rise time result is “increase” and the “voltage trace (fluorescence over time)” value is given as “less pronounced effect”.
Regarding `CC(C)(C)C(O)/C=C/c1ccc2c(c1)OCO2` (stereo not drawn) [stiripentol], the spike frequency result in data set [3] (acute doses) is given as “significantly decreased”; in data set [3] (chronic doses) it was “decreased”. Moreover, the “impact on spike frequency, acute versus chronic exposure” value in data set [3] (visual comparison of FIG. 52 to FIG. 53) is “acute STR has a more severe impact on spike frequency than chronic exposure”.
Turning to `CC[N+](CC)(CC)CC` [tetraethylammonium], the instantaneous firing rate entry in data set [4] (after a few seconds of increasing stimulus intensity, before vs after exposure) is “unexposed cells (“before”) consistently fire at a higher rate”. In addition, in data set [4] (after exposure), the Ahp result is “change in Ahp”, the “number of spiking cells” value was “reduction in the number of spiking cells”, the “return of fluorescence to baseline (average waveform)” value is recorded as “does not return to baseline to the degree it did before exposure” and the spike height entry was “lower”. Moreover, the instantaneous firing rate result in data set [4] (lower stimulus intensities (time=0 to about 2 s), exposed cells) was “a few very high spikes in firing rate”.
Turning to Flash, in data set [5], the “f (delta F/F per 100 mV)” value is on record as 5.1% and the response time was 2.8 to 85 ms.

B1: Arch 3 WT: wild type Archaerhodopsin 3, light-driven proton pump from Halorubrum sodomense used as fluorescent voltage indicator (protein, UniProt P96787 7-258, looked up)
Archaerhodopsin-3: QAGYDLLGDGRPETLWLGIGTLLMLIGTFYFLVRGWGVTDKDAREYYAVTILVPGIASAAYLSMFFGIGLTEVTVGGEMLDIYYARYADWLFTTPLLLLDLALLAKVDRVTIGTLVGVDALMIVTGLIGALSHTAIARYSWWLFSTICMIVVLYFLATSLRSAAKERGPEVASTFNTLTALVLVLWTAYPILWIIGTEGAGVVGLGIETLLFMVLDVTAKVGFGFILLRSRAILGDTEAPEPSAGADVSAAD
On to B1, for which, in data set [6], the “smallest voltage steps reported” value is 10 mV. Moreover, the “fluorescence increase (factor)” value in data set [6] (between −150 mV and +150 mV) amounted to 2. Besides, the “response of fluorescence to a step in membrane potential” value in data set [6] (rising and falling edge, time resolution of imaging system) is given as not above 500 micro s. In data set [6] (sinusoidally varying membrane potential, f=1 kHz), the “fluorescence oscillation amplitude retained relative to low-frequency amplitude” value came out at 55%. In data set [6] (steps between −70 mV and +30 mV, resolution of imaging system), this molecule had a step response time of less than 0.5 ms. Moreover, the “accuracy of reported voltage” value in data set [6] (timescales<12 s) is on record as 625 micro V/(Hz)̂(1/2). For the same molecule, the “time to 90% of step response” value in data set [7] was 0.6 ms. For the same molecule, the response time in data set [7] (Arch indicators) was < 0.5 ms and 0.6 ms.

B2: Arch D95N: Archaerhodopsin 3 with D95N mutation, voltage indicator (protein, UniProt P96787 7-258, looked up, variant D95N)
Archaerhodopsin-3: B1 Archaerhodopsin-3 with D89N
Regarding B2, in data set [7] (Arch indicators), the “f (delta F/F per 100 mV)” value stood at 100% and the response time is 41 ms.
